According to US20140221207A1, “ISOLATED BACTERIAL STRAIN OF THE GENUS BURKHOLDERIA AND PESTICIDAL METABOLITES THEREFROM- FORMULATIONS AND USES” (MARRONE BIO INNOVATIONS, INC., priority 2011, published 2014):
Where two headings read alike, the source gives them in different places.

What was measured:
radish plants = test: Whole plant herbicidal bioassay on radish; type: in vivo; design: Control, Day-1 Reading, Replicate 1 / Control, Day-1 Reading, Replicate 2 / Control, Day-1 Reading, Replicate 3 / Control, Day-1 Reading, AVG / Control, Day-7 Reading, Replicate 1 / Control, Day-7 Reading, Replicate 2 / Control, Day-7 Reading, Replicate 3 / Control, Day-7 Reading, AVG: scale not given here; conditions: 10 mg/ml; for Control, Day-1 Reading, AVG / Control, Day-1 Reading, Replicate 1 / Control, Day-1 Reading, Replicate 2 / Control, Day-1 Reading, Replicate 3 / Control, Day-7 Reading, AVG / Control, Day-7 Reading, Replicate 1 / Control, Day-7 Reading, Replicate 2 / Control, Day-7 Reading, Replicate 3: foliar spray
Description: Healthy radish plants with two to three true leaves were selected for testing. The radish plants are 13 days old at treatment. The plants are sorted so that all treatments are equivalent in foliage surface area and plant height. The pots are labeled with treatment number and repetition number. Three repetitions per treatment are tested.
Ten fractions of MBI-206 formulated product are tested. The fractions are at a concentration of 10 mg/ml. The crude extracts of the formulated product and broth are also tested. An untreated control (treated with deionized water) and a positive control (RoundUp Super Concentrate at a rate of 2.5 fluid ounces per gallon) are included in the test.
All products and treatments are well shaken prior to application. Treatments are applied using a nozzle from a 2-ounce spray bottle. Separate spray nozzles were used for each treatment. […] Two milliliters of each treatment are sprayed simultaneously over the three repetitions of each treatment so that each plant is treated with approximately 0.67 milliliters of treatment solution.
The plants are allowed to air dry and are then randomized in holding trays. Each tray is labeled with the experiment name and treatment date and placed on the laboratory greenhouse shelves. The laboratory greenhouse maintains a temperature of 70-80° F. and a relative humidity of 30-40%. Throughout the bioassay, plants are watered from below by filling the holding trays with an appropriate amount of water so that plant foliage remained dry.
Symptoms included foliage burning and plant stunting. The following rating scale, shown in Table 4 is used to quantify efficacy. Ratings are determined by observing the following factors relative to the plants of the untreated control: overall plant health, average plant height, and foliage health. Symptoms of affected plants may include discolored/spotted/burnt/bleached foliage, warped/twisted/curled leaves, side branching (due to damaged apical meristem), plant dieback, or death.
The pure compounds (butyl paraben [MBI206-FP-F5H32] and hexyl paraben [MBI206-FP-F5H40]) obtained from fraction 5 were tested at a concentration of 10 mg/ml. An untreated control (treated with deionized water), the formulation blank (at 3% v/v & 10% v/v), and a positive control (RoundUp Super Concentrate at a rate of 2.5 fluid ounces per gallon) are included in the test.

[1] = tested on: Beet Armyworm (Spodoptera exigua); test: 96-well diet overlay assay with 1st instar Beet Armyworm larvae; type: in vivo; conditions: for mortality at 40 µg/disc: Spodoptera exigua
Description: The insecticidal activity of butyl paraben (MBI206-FP-F5H32) and hexyl paraben (MBI206-FP-F5H40) were tested in a laboratory assay using a 96-well diet overlay assay with 1st instar Beet Armyworm (Spodoptera exigua) larvae using microtiter plates with 200 ul of solid, artificial Beet Armyworm diet in each well. One hundred (100) microliters of each test sample (containing 40 ug of sample) is pipetted on the top of the diet (one sample in each well), and the sample is let dry under flowing air until the surface is dry. Each sample was tested in six replicates, and water and a commercial Dipel product are used as negative and positive controls, respectively. One first instar larvae of the test insect (Beet armyworm—Spodoptera exigua) was placed in each well, and the plate was covered with plastic cover with airholes. The plates with insects were incubated at 26° C. for 6 days with daily mortality evaluations.

M. incognita [2] = test: In vitro 96-well nematode immobility bioassay, trial T1; type: in vivo; conditions: 3 μl of 20 mg/ml to 50 μl, 24 hour, 25° C
Description: (§1) The pure sample of butyl paraben and hexyl paraben was used in an in vitro 96-well plastic cell-culture plate bioassay. 15-20 nematodes in a 50 μl water solution were exposed to 3 μl of a 20 mg/ml peak concentrate for a 24 hour period at 25° C. Once the incubation period was completed, results were recorded based on a visual grading of immobility of the juvenile nematodes (J2's) in each well treated with compounds; each treatment was tested in replicate of 4 wells. […] Three controls are included in each trial; 1 positive (1% Avid) & 2 negative (DMSO & water). Trials (T1) was carried out using M. incognita nematodes and trail (T2) was carried out using M. hapla nematodes, the samples were dissolved in 100% DMSO.

M. hapla = test: In vitro 96-well nematode immobility bioassay, trial T2; type: in vivo; conditions: 3 μl of 20 mg/ml to 50 μl, 24 hour, 25° C
Description: as §1

[3] = tested on: M. incognita and M. hapla; test: In vitro 96-well nematode immobility bioassay, mean of trials T1 and T2; type: in vivo; conditions: 3 μl of 20 mg/ml to 50 μl, 24 hour, 25° C
Description: as §1

[4] = tested on: Chlamydomonas reinhardtii; test: Control of Chlamydomonas reinhardtii by purified compounds, fluorescence at 680 nm; type: cell-based; conditions: 72 hours
Description: Purified compounds from Burkholderia sp. fermentation broth was tested for algaicidal activity against Chlamydomonas reinhardtii. An increasing volume of the purified compounds (20 mg/mL in ethanol) was added to a clear 48 well polystyrene plate with 750 micro liters of the specified algae growing. Each treatment was done in two replicates and the solvent used as a negative control. The plate was closed with a lid and incubated for 72 hours under constant light at room temperature. After 72 hours the fluorescence (at 680 nm) of the suspension in each well was measured using a SpectraMax M2 plate reader, and the reduction in fluorescence compared with the negative control was converted into percent control of algal growth. Each sample was visually compared to the negative control; a well that was visually clearer than the negative control was scored as active. […] Tests were run in two replicates and %. Control was calculated as a reduction of fluorescence at 680 nm compared with the negative control. Each sample was visually compared to the negative control; a well that was visually clearer than the negative control was scored as active.

Lygus hesperus = test: 12 well plate treated green beans bioassay, Lygus hesperus late 2nd/early 3rd instar; type: in vivo; conditions: Lygus hesperus; green beans dipped in 0.25 mg/mL; scored at 24, 48 and 120 hours
Description: The insecticidal activity of the four compounds, templamide A, templamide B, FR901465 & FR901228 isolated from Burkholderia were tested in a laboratory assay using a 12 well plate with treated green beans bioassay system. The compound was dissolved in 100% ethanol to concentrations of […] and 500 μL of this sample was added to 3.5 mL of water to make a total volume of 4 mL containing 0.25 mg/mL concentration of the compound. Green beans were washed earlier in bleach solution and then sat in water to rinse. Beans were dried before using and then were cut with scissors to fit into wells of 12-well plate. With the help of forceps the beans were dunked into a 15 mL plastic falcon tube containing each treatment and then submerged in treatment for exactly one min. one bean part was put into each well and then individual late 2nd/early 3rd instar Lygus hesperus, were placed in wells with help of brush. Plate sealer was used to cover tray and hole poked into the plate sealer for aeration. The numbers of Lygus/well were counted and plates were placed on brench top. Larvae were scored at 24, 48 and 120 hours after application. […] The positive control used in this testing was Avid (Avemectin) at the rate of 13 μL/10 mL.

[5] = tested on: Free living nematodes (FLN); test: In vitro 96-well nematode immobility bioassay of FR901228, trial T1; type: in vivo; conditions: 3 μl of 20 mg/ml to 50 μl, 24 hour, 25 C
Description: (§2) The pure sample of FR 901228 was tested using an in vitro 96-well plastic cell-culture plate bioassay. 15-20 nematodes in a 50 μl water solution were exposed to 3 μl of a 20 mg/ml solution of FR 901228 for a 24 hour period at 25 C. Once the incubation period was completed, results were recorded based on a visual grading of immobility of the juvenile nematodes (J2's) in each well treated with compounds; each treatment was tested in replicate of 4 wells. Three controls are included in each trial; 1 positive (1% Avid) & 2 negative (DMSO & water). Trials (T1) was carried out using Free living nematodes (FLN) and trail (T2) was carried out using M. incognita nematodes, the samples were dissolved in 100% DMSO.

M. incognita [6] = test: In vitro 96-well nematode immobility bioassay of FR901228, trial T2; type: in vivo; conditions: 3 μl of 20 mg/ml to 50 μl, 24 hour, 25 C
Description: as §2

[7] = tested on: milkweed bugs (Oncopeltus fasciatus); test: Sucking contact bioassay on milkweed bugs; type: in vivo; conditions: 1 μL of 1 mg/mL in ethanol onto abdomen of 4th instar; scored at 4 and 7 day
Description: The insecticidal activity of the pure compounds templamide B (MBI 206; MW 537), FR 901465 (MBI 206; MW 523) and FR901228 (MBI 206; MW 540) were tested in a laboratory assay using a sucking contact bioassay system. The compounds were dissolved in 100% ethanol to concentrations of 1 mg/mL. Individual 4th instar milkweed bugs, penultimate nymph, larvae were placed in 5C Rubbermaid container with 2 sunflower seeds in each tub and 1 water cup (water in contact cup with cotton wick) into each tub. A Hamilton Micropipette was used to apply 1 μL (1 drop) of compound onto abdomen of milkweed bugs (MWB) of each larvae. Tubs were place into the Rubbermaid container and cap with mesh lid. Eight larvae per sample were treated. The assay was incubated at 25° C., 12 h light/12 h dark. Larvae were scored at 4 and 7 day after application. […] Thus, FR 901465 provided a better (87.5%) control of milkweed bugs, than FR 901228 (MW 540) and templamide B (FIG. 4).

[8] = 72 h, read-out: Insecticidal bioassay data (mortality), Day 3
[9] = 96 h, read-out: Insecticidal bioassay data (mortality), Day 4
[10] = 5 μL of sample (20 mg/mL in ethanol) per 750 μL of algae
[11] = 5 μL of sample per 750 μL of algae
[12] = 11 μL of sample (20 mg/mL in ethanol) per 750 μL of algae
[13] = 11 μL of sample per 750 μL of algae
[14] = 22.5 μL of sample (20 mg/mL in ethanol) per 750 μL of algae
[15] = 22.5 μL of sample per 750 μL of algae, well visually clearer than negative control scored as active

Compound	Control, Day-1 Reading, AVG (radish plants)	Control, Day-1 Reading, Replicate 1 (radish plants)	Control, Day-1 Reading, Replicate 2 (radish plants)	Control, Day-1 Reading, Replicate 3 (radish plants)	Control, Day-7 Reading, AVG (radish plants)	Control, Day-7 Reading, Replicate 1 (radish plants)	Control, Day-7 Reading, Replicate 2 (radish plants)	Control, Day-7 Reading, Replicate 3 (radish plants)	mortality at 40 µg/disc [1, 8]	mortality at 40 µg/disc [1, 9]	% immobility (trial # T1) (M. incognita [2])	immobility against M. incognita (M. incognita [2])	% immobility (trial # T2) (M. hapla)	Mean % immobility [3]	% Control [4, 10]	Visual [4, 11]	% Control [4, 12]	Visual [4, 13]	% Control [4, 14]	Visual [4, 15]	also measured
CCCCOC(=O)c1ccc(O)cc1 [Butyl paraben, butyl paraben]	18.3	25	5	25	24.2	25	10	37.5	8.93%	8.93%	75%	81.25%	87.5%	81.25%							mortality ([1]; 40 ug of sample per well, text summary of Table 7): 9%
C/C=C1\NC(=O)[C@H]2CSSCC/C=C/[C@H](CC(=O)N[C@H](C(C)C)C(=O)N2)OC(=O)[C@H](C(C)C)NC1=O [FR901228]															89.48%	Active	99.36%	Active	98.71%	Active	mortality at 250 µg/mL (Lygus hesperus): 51.7%; immobility [5]: 75%; immobility (M. incognita [6]): 75%
CC(=O)OC(C)/C=C\C(=O)NC1CC(C)C(C/C=C(C)/C=C/C2OC(C)(O)C(O)C3(CO3)C2O)OC1C (centres unmarked) [FR901465]															−86.58%	Not Active	−33.58%	Not Active	−3.887%	Not Active	control of milkweed bugs [7]: 87.5%; mortality at 250 µg/mL (Lygus hesperus): 91.2%
CCCCCCOC(=O)c1ccc(O)cc1 [Hexyl paraben, hexyl paraben]	75.0	75	75	75	87.5	87.5	87.5	87.5	50%	70.8%	87.5%	93.75%	100%	93.75%							herbicidal potency in words (radish plants; compared with butyl paraben): most potent herbicidal compound
